The results in this text go back to patent publication US9517215B2, “Dermal matrix and production method thereof having synergistic effects comprising microparticles which provides tissue repair” (T.C. EGE UNIVERSITESI, priority 2013, dated 2016).

The structures appear in SMILES notation.

The subject of this series is human dermal fibroblast cells (Invitrogen C-013-5C). Nature of the series: Cell vitality of human dermal fibroblast cells after 24 h incubation. It is filed as cell-based. As to the method: The human dermal fibroblast cells, (Invitrogen C-013-5C) were cultured in humid conditions comprising 37±0.5° C. and 5% CO2 according to the instructions of the producer. […] Oxidative stress parameters such as total glutation, malondialdehyde, and superoxide dismutase and glutation peroxidase have been examined inside the cells that have been analyzed.

Turning to `Oc1ccc(C=Cc2cc(O)cc(O)c2)cc1` [Resveratrol solution, resveratrol], the “cytotoxic potential (cell vitality)” value is reported as “not to have cytotoxic potential”. The cell proliferation effect entry (concentrations corresponding to 50 μM resveratrol content) was “cell proliferation increasing effects”.
